Key:
Format in all cases: in vivo
[1] = test system: Cowpea Aphid (aphis craccivora); test: Cowpea aphid spray test on potted cowpea plants; settings: for mortality at 300 ppm: Aphis craccivora, cowpea aphid on potted cowpea plants, sprayed, assessed after 24, 72 and 120 hours, read-out: mortality in comparison with untreated controls; for activity in [%]: Cow pea aphid, 300 ppm, scale 0% no biological activity to 100% total control
Description: (§1) Under general conditions, if not otherwise specified, most test solutions are prepared as follow: The active compound is dissolved at the desired concentration in a mixture of 1:1 (vol:vol) distilled water:acetone. The test solution is prepared at the day of use.
(§2) Test solutions are prepared in general at concentrations of 1000 ppm, 500 ppm, 300 ppm, 100 ppm and 30 ppm (wt/vol).
B.1 Cowpea Aphid (aphis craccivora)
Potted cowpea plants colonized with approximately 100-150 aphids of various stages were sprayed after the pest population has been recorded. Population reduction was assessed after 24, 72, and 120 hours.

[2] = test system: Spider Mite (Tetranychus spp.); test: Spider mite contact/oral activity on potted cotton plants; settings: for activity in [%]: Spider mite, 300 ppm, scale 0% no biological activity to 100% total control; for mortality at 300 ppm: Tetranychus, po, spider mites on potted cotton plants, sprayed, assessed after 24, 72 and 120 hours, read-out: mortality in comparison with untreated controls
Description: as §1, §2
B.2 Spider Mite (Tetranychus spp.)
Potted cotton plants colonized with approximately 50 mites of various stages are sprayed after the pest population has been recorded. Population reduction (or increase) after 24, 72, and 120 hours is assessed.

[3] = test system: Rice Brown Plant Hopper (Nilaparvata lugens); test: Rice brown plant hopper test on sprayed rice seedlings; settings: for activity in [%]: Nilaparvata lugens, 300 ppm, scale 0% no biological activity to 100% total control; for mortality at 300 ppm: Nilaparvata lugens adults on sprayed rice seedlings, 72 hours, read-out: mortality in comparison with untreated controls
Description: B.3 Rice Brown Plant Hopper (Nilaparvata lugens)
Rice seedlings were cleaned and washed 24 hours before spraying. The active compounds were formulated in 50:50 acetone:water (vol:vol) and 0.1% vol/vol surfactant (EL 620) was added. Potted rice seedlings were sprayed with 5 ml test solution, air dried, placed in cages and inoculated with 10 adults. Treated rice plants were kept at about 28-29° C. and relative humidity of about 50-60%. Percent mortality was recorded after 72 hours.

[4] = test system: Yellow Fever Mosquito (Aedes aegypti) neonate larvae; test: Yellow fever mosquito larval motility assay in microtiter plates
Description: B.4. Activity Against Yellow Fever Mosquito (Aedes aegypti)
The compounds were formulated in 100% DMSO and were tested in microtiter plates containing 180 ul 1× Luria Broth media and 10 neonate A. aegypti larvae. The efficacy of a compound was determined based on the motility of the larvae as compared to average motility of control wells containing DMSO only. Compounds with >80% reduction in motility at a concentration of 10 ppm were tested in a dose response assay to determine EC50 values.

[5] = test system: Ctenocephalides felis fleas; test: Rat ectoparasiticide model (flea infestation, topical treatment); settings: for Efficacy in [%]: Ctenocephalides felis on rats; for reduction of flea counts (% efficacy): rats, topical, 48 hours post-treatment, average, n=2 replicas
Description: B.5. Activity in Rat Ectoparasiticide Model
Rats were infested with 50 Ctenocephalides felis fleas. Approximately twenty four hours later rats (3 per group) were treated topically with test compounds at doses of 20 mg/kg or 10 mg/kg body weight. Placebo (vehicle) and positive control groups were included in each study. Forty eight hours post-treatment, fleas were collected from each rat using a flea comb. The percent efficacy per treatment group was calculated using the following formula: % efficacy=100×(C−T)/C
where C is the geometric mean of live fleas recovered in the placebo group and T is the geometric mean of live fleas recovered in the respective treatment group.

FC(F)(F)Sc1ccc(CNc2ncnc3scc(Cl)c23)cc1 [C.1]
mortality at 300 ppm [1]: > 80%

CC(Nc1ncnc2scc(Cl)c12)c1ccc(SC(F)F)cc1 (centres unmarked) [C.2]
mortality at 300 ppm [1]: > 80%

C[C@@H](Nc1ncnc2scc(Cl)c12)c1ccc(SC(F)(F)F)cc1 [C.3-R]
activity in [%] [1]: 0%
activity in [%] [2]: 0%
activity in [%] [3]: 0%

C[C@H](Nc1ncnc2scc(Cl)c12)c1ccc(SC(F)(F)F)cc1 [C.3-S, (5-Chloro-thieno[2,3-d]pyrimidin-4-yl)-[(S)-1-(4-trifluoromethylsulfanyl-phenyl)-ethyl]-amine]
activity in [%] [1]: 100%
activity in [%] [2]: 90%
activity in [%] [3]: 100%
EC50 (section headed 'Activity at 1 [ppm]') [4]: 0.21 ppm
Efficacy in [%] ([5]; dosage 10 mg/kg): 71%
Efficacy in [%] ([5]; dosage 20 mg/kg): 89%
reduction of flea counts (% efficacy) ([5]; 10 mg/kg): 71%
reduction of flea counts (% efficacy) ([5]; 20 mg/kg): 89%

CC(Nc1ncnc2scc(Cl)c12)c1ccc(SC(F)(F)F)cc1 (centres unmarked) [C.3]
mortality at 300 ppm [1]: > 80%
activity in [%] [1]: 100%
activity in [%] [2]: 90%
mortality at 300 ppm [2]: > 80%
mortality at 300 ppm [3]: > 80%
activity in [%] [3]: 100%
EC50 (section headed 'Activity at 1 [ppm]') [4]: 0.29 ppm

CC(Nc1ncnc2scc(Cl)c12)c1ccc([S+]([O-])C(F)(F)F)cc1 (centres unmarked) [C.4]
mortality at 300 ppm [1]: > 80%

CC(Nc1ncnc2scc(Cl)c12)c1ccc(SCC(F)(F)F)cc1 (centres unmarked) [C.5]
mortality at 300 ppm [1]: > 80%

CC(Nc1ncnc2scc(Cl)c12)c1ccc(SC(F)(F)C(F)(F)F)cc1 (centres unmarked) [C.6]
mortality at 300 ppm [1]: > 80%
mortality at 300 ppm [2]: > 80%
mortality at 300 ppm [3]: > 80%

CSc1ccc(C(C)Nc2ncnc3scc(Cl)c23)cc1 (centres unmarked) [CE.1, reference compound]
activity in [%] [3]: 0%

C[C@H](Nc1ncnc2scc(Cl)c12)c1ccc(OC(F)(F)F)cc1 [CE.2, reference compound]
activity in [%] [2]: 50%
Efficacy in [%] ([5]; dosage 10 mg/kg): 70%
Efficacy in [%] ([5]; dosage 20 mg/kg): 82%

From patent US9133209B2, “Insecticidal 4-amino-thieno[2,3-D]-pyrimidine compounds and methods of their use” (priority 2009, dated 2015)
